Test results: article PMC9150102 (Journal of Medicinal Chemistry, 2022)

Experiments:
[1] = biological target: T1, Na^+/K^+ ATPase-alpha1 isoform purified from dog kidneys (Canis lupus familiaris, UniProt P50997); test: Na+/K+ ATPase activity inhibition, purified dog kidney enzyme (32P-ATP hydrolysis); format: biochemical
T1 construct: excised from 1–3-year-old male beagle dogs; from tissue; host or cells: dog (beagle) kidney outer medulla, Jørgensen purification
Method: Compounds were tested in a concentration range from 10^–9 to 10^–4 M on a purified renal Na^+/K^+ ATPase preparation with a specific activity of 14 μmol/min/mg protein.
Figure 2 Na^+/K^+ ATPase activity inhibition in a dog purified enzyme preparation. All compounds were tested in a concentration range from 10^–9 to 10^–4 M in comparison to ouabain.
The inhibitory effect of compounds was tested at multiple concentrations on Na^+/K^+ ATPase-alpha1 isoform purified from dog kidneys. […]
Renal Na+/K+ ATPase purification and activity
Purification of renal Na+/K+ ATPase was performed according to the method of Jørgensen2. Kidneys were excised from 1–3-year-old male beagle dogs, obtained from the General Pharmacology Department of Sigma-tau, Pomezia, Italy, under pentobarbital anesthesia. Kidneys were sliced and the outer medulla was dissected, pooled and suspended (1g in 10 ml) in a sucrose-histidine solution, containing 250 mM sucrose, 30 mM histidine and 5 mM EDTA, pH 7.2 and homogenized. The homogenate was centrifuged at 6,000 g for 15 min, the supernatant was decanted and centrifuged at 48,000 g for 30 min. The pellet was suspended in the sucrose-histidine buffer and incubated for 20 min with a sodium-dodecyl-sulphate (SDS) solution, dissolved in a gradient buffer, containing 25 mM imidazole and 1 mM EDTA, pH 7.5. The sample was layered on the top of a sucrose discontinuous gradient (10, 15 and 29.4%) and centrifuged at 60,000 g for 115 min. The final pellet was suspended in the gradient buffer.
Na+/K+ ATPase activity was assayed by measuring 32P-ATP hydrolysis, as previously described3.
Increasing concentrations of the standard ouabain, or tested compound, were incubated with 0.3 μg of purified dog kidney enzyme for 10 min at 37°C in 120 μl final volume of a medium, containing 140 mM NaCl, 3 mM MgCl2, 50 mM Hepes-Tris, 3 mM ATP, pH 7.5. Then, 10 μl of incubation solution containing 10 mM KCl and 20 nCi of 32P-ATP (3-10 Ci/mmol, Perkin Elmer) were added, the reaction continued for 15 min at 37°C and was stopped by acidification with 20% ice-cold perchloric acid.
32P was separated by centrifugation with activated Charcoal (Norit A, Serva) and the radioactivity was measured. Effects of increasing concentrations of the tested compound were compared to ouabain, as positive standard, and to vehicle (control) at 37°C. The inhibitory activity was expressed as percent of activity in control. The concentration of compound causing 50% inhibition of the Na+/K+ ATPase activity (IC50) was calculated by non-linear fitting of data points (KaleidagraphTM, Sinergy Software). […]

[2] = tested on: SERCA1 reconstituted with PLN1–32 fragment; test: SERCA1 ATPase activity after reconstitution with PLN1-32 fragment; format: biochemical, guinea pig; conditions: 30 to 1000 nM
Method: Data are the mean ± SEM. *p < 0.05 (one-way RM ANOVA plus post hoc Tukey’s multiple comparisons or paired t-test).
Measurements were performed in cardiac SR microsomes (guinea pig) and in whole tissue homogenates (rat). Cardiac preparations included SERCA2a and PLN. To test for PLN involvement in the effect of compounds, SERCA1 activity was measured in PLN-free microsomes (from guinea pig skeletal muscle) before and after reconstitution with the synthetic PLN1–32 inhibitory fragment at a ratio of 300:1 for PLN/SERCA. […] Either an increase in Vmax (rat) or a decrease in KdCa (increased Ca^2+ affinity) (guinea pig) stands for enhancement of SERCA function.
(rats). As verified by Western blot, cardiac microsomes preparations included SERCA2a and PLN and skeletal muscle ones included SERCA1 only.
SERCA stimulation4, compounds were also tested on SERCA1 in microsomes of guinea-pig skeletal muscle (PLN-free) before and after reconstitution with the PLN1-32 inhibitory fragment at a ratio of 300:1 […]
Tissues were homogenized, subjected to centrifugation to obtain SR -enriched microsomes and sarcomeric proteins were extracted, as previously described 4.
In the case of guinea-pig hearts, LV tissues were homogenized in 4 volumes of 10 mM NaHCO3, 1 mM PMSF, 10 μg/ml aprotinin and leupeptin (pH 7) and centrifuged at 12,000g for 15 minutes. Supernatants were filtered and centrifuged at 100,000 g for 30 min. Contractile proteins were extracted by suspending the pellets with 0.6 M KCl, 30 mM histidine, pH 7 and further centrifugation at 100,000 g for 30 min.
Final pellets were reconstituted with 0.3 M sucrose, 30 mM histidine, pH 7, to obtain SR-enriched […]
SERCA2a ATPase activity was measured as the rate of 32P-ATP release at multiple Ca2+ concentrations (100-2000 nM) in the absence and presence of tested compounds, as previously described5. Increasing concentrations of each compound were pre-incubated with 2 μg of cardiac preparations for 5 min at 4° C in 80 μl of a solution containing 100 mM KCl, 5 mM MgCl2, 1 μM A23187, 20 mM Tris, pH 7.5. Then, 20 μl of 5 mM Tris-ATP containing 50 nCi of 32P-ATP (3-10 Ci/mmol, Perkin Elmer) were added. The ATP hydrolysis was continued for 15 min at 37°C and the reaction was stopped by acidification with 100 μl of 20% ice-cold perchloric acid. 32P was separated by centrifugation with activated charcoal (Norit A, Serva) and the radioactivity was measured. SERCA2a-dependent ATPase activity was identified as the portion of total hydrolytic activity inhibited by cyclopiazonic acid (CPA, 10 µM). Technical replicates were used to ensure the reliability of single values.
Reconstitution of SERCA1 with PLN1-32 synthetic fragment
Adult healthy male guinea-pigs were used to prepare SERCA1-enriched SR microsomes from fast-twitch hind leg muscles. Microsomes were prepared as described for SERCA2a preparations. For reconstitution experiments, SERCA1 (PLN-free) was pre-incubated with synthetic PLN1-32 fragment (canine sequence, Biomatik Corporation, Canada) in 20 mM imidazole, pH 7, at 1:300 SERCA1:PLN ratio for 30 min at room temperature. After pre-incubation, SERCA1 (PLN-free) alone, or reconstituted with PLN1-32 […]
fragment, was utilized for SERCA activity measurement by using 32P-ATP hydrolysis method at different

| SMILES | IC50 [1] [µM] | SERCA1 KdCa after reconstitution with PLN1–32 [2] | SERCA1 Vmax after reconstitution with PLN1–32 [2] |
| --- | --- | --- | --- |
| C[C@]12CC[C@H](CCCC(=O)O)C[C@@H]1[C@@H](O)C[C@@H]1[C@@H]2CC[C@]2(C)C(=O)CC[C@@H]12 [Compound 5] | > 100 | dose-dependently reversed the PLN-induced shift in KdCa | unchanged |
| C[C@]12CC[C@H](CC(=O)O)C[C@@H]1[C@@H](O)C[C@@H]1[C@@H]2CC[C@]2(C)C(=O)CC[C@@H]12 [Compound 8] | > 100 | dose-dependently reversed the PLN-induced shift in KdCa | unchanged |
